Legend:
[1] = biological target: BaF3 PIM1 cells (Homo sapiens, UniProt P11309); test: BaF3 PIM1 cell proliferation (Cell Titer Glo); format: cell-based; conditions: incubated overnight; read-out: Prolif BaF3_PIM1 (IC50)
Method: (§1) BaF3 parental line was obtained from the DSMZ repository. BaF3 lines transfected with PIM1 or PIM2 were generated. Mouse IL-3 was purchased from R&D Systems. G418 was purchased from Clontech. Media for BaF3 parental line contained RPMI, 10% FBS, 2 mM L-Glutamine, 2 ng/mL mIL-3. Media for BaF3 PIM1 & 2 lines contained RPMI, 10% FBS, 2 mM L-Glutamine, […]. Media for MM1.S line contained RPMI, 10% FBS, 2 mM L-Glutamine.
(§2) BaF3 parental cells, BaF3 PIM1 cells, BaF3 PIM2 cells, and MM1.S cells were seeded at 2 k/well, 5 k/well, 5 k/well, and 10 k/well respectively, in a 384-well plate, at 45 μL/well. Test compound was added at 5 μL/well. BaF3 cells (parental and transfected) were incubated overnight, while MM1.S cells were incubated for 72 hours at 37° C., 5% CO2. Cell Titer Glo Reagent (Promega) was added at 50 μL/well, the plates were incubated for 30 minutes, and their luminescence read on an HT Analyst. IC50/EC50 values for the test compound were calculated.

[2] = biological target: T1, PIM1 (Homo sapiens, UniProt P11309); test: Pim-1 kinase enzymatic assay (Caliper LC3000, FAM-Pimtide substrate); format: biochemical; conditions: 20 pM PIM1, 10 μM ATP, 90 minutes; read-out: PIM1 LC3K (Ki)
T1 construct: made in house
Method: (§3) Reaction Buffer contained 10 mM HEPES, pH 7.2, 10 mM MgCl2, 0.01% Tween 20, 2 mM DTT.
(§4) PIM reactions were carried out in a final volume of 10 μL per well in a 384-well plate. […] The separation of product and substrate was optimized by choosing voltages and pressure using Caliper's Optimizer software (Hopkinton, Mass.). The separation conditions used a downstream voltage of −500V, an upstream voltage of −2150V, and a screening pressure of −1.2 psi. […] Substrate conversion was calculated from the electrophoregram using HTS Well Analyzer software (Caliper Life Sciences, Hopkinton, Mass.). Ki values for the test compound were calculated.

[3] = biological target: BaF3 PIM2 cells (Homo sapiens, UniProt Q9P1W9); test: BaF3 PIM2 cell proliferation (Cell Titer Glo); format: cell-based; conditions: incubated overnight; read-out: Prolif BaF3_PIM2 (IC50)
Method: as §1, §2

[4] = biological target: T2, PIM3 (Homo sapiens, UniProt Q86V86); test: Pim-3 kinase enzymatic assay (Caliper LC3000, FAM-Pimtide substrate); format: biochemical; conditions: 55 pM PIM3, 10 μM ATP, 90 minutes; read-out: PIM3 LC3K (Ki)
T2 construct: made in house
Method: as §3, §4

[5] = tested on: MM1.S cells; test: MM1.S cell proliferation, 72 hours (Cell Titer Glo); format: cell-based; conditions: Homo sapiens, 72 hours, read-out: Prolif MM1S ATP (EC50)
Method: as §1, §2

[6] = biological target: T3, PIM2 (Homo sapiens, UniProt Q9P1W9); test: Pim-2 kinase enzymatic assay (Caliper LC3000, FAM-Pimtide substrate); format: biochemical; conditions: 50 pM PIM2, 10 μM ATP, 90 minutes; read-out: PIM2 LC3K (Ki)
T3 construct: made in house
Method: as §3, §4

T1 sequence (P11309 whole entry): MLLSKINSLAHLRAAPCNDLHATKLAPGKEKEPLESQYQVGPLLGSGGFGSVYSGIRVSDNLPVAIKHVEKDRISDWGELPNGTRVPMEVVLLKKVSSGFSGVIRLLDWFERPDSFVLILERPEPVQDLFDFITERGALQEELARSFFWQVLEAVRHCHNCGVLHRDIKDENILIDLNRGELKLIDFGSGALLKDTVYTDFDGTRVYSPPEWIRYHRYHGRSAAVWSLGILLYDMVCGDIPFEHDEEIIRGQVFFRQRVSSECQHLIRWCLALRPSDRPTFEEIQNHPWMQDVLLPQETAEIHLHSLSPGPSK
BaF3 PIM1 cells, sequence (P11309 whole entry, change not shown): as the sequence (P11309 whole entry) above
BaF3 PIM2 cells, sequence (Q9P1W9 whole entry, change not shown): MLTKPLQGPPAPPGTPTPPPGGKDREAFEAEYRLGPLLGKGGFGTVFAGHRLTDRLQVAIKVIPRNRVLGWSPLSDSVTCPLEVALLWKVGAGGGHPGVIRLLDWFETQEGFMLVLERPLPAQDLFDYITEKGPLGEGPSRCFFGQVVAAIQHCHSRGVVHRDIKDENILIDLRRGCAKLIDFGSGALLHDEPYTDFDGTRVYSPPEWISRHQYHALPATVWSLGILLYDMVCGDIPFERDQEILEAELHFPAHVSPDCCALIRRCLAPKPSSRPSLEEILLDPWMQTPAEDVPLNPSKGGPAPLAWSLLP
T3 sequence (Q9P1W9 whole entry): as the sequence (Q9P1W9 whole entry, change not shown) above

Structure (SMILES)	GI50 [1] [nM]	Ki [2] [nM]	GI50 [3] [nM]	Ki [4] [nM]	EC50 [5] [nM]	Ki [6] [nM]
CN(C)C(=O)c1ccc(F)c(-c2nc(C(=O)Nc3cnccc3N3CCC[C@H](N)C3)c(N)s2)c1 [Example 18, (S)-5-amino-N-(4-(3-aminopiperidin-1-yl)pyridin-3-yl)-2-(5-(dimethylcarbamoyl)-2-fluorophenyl)thiazole-4-carboxamide]	257	0.096	12300	0.033	767	0.596
Nc1sc(-c2ccccn2)nc1C(=O)Nc1cnccc1N1CCC[C@H](N)C1 [Example 9, (S)-5-amino-N-(4-(3-aminopiperidin-1-yl)pyridin-3-yl)-2-(pyridin-2-yl)thiazole-4-carboxamide]	68.8	0.084	1900	0.014	89.7	0.16
COc1ccccc1-c1nc(C(=O)Nc2cnccc2N2CCC[C@H](N)C2)c(N)s1 [Example 39, (S)-5-amino-N-(4-(3-aminopiperidin-1-yl)pyridin-3-yl)-2-(2-methoxyphenyl)thiazole-4-carboxamide]	375	0.306	5100	0.143	3200	1.69
Nc1sc(-c2ccccc2F)nc1C(=O)Nc1cnccc1N1C[C@@H](N)C[C@@H](F)C1 [Example 62, 5-amino-N-(4-((3S,5R)-3-amino-5-fluoropiperidin-1-yl)pyridin-3-yl)-2-(2-fluorophenyl)thiazole-4-carboxamide]	6000	1.34	10400	0.326	364	8.87
Nc1sc(-c2ccccc2)nc1C(=O)Nc1cnccc1N1CCC[C@H](N)C1 [Example 7, (S)-5-amino-N-(4-(3-aminopiperidin-1-yl)pyridin-3-yl)-2-phenylthiazole-4-carboxamide]	73	0.091	3100	0.0215	141	0.203
Cc1ccc(-c2nc(C(=O)Nc3cnccc3N3CCC[C@H](N)C3)c(N)s2)cc1 [Example 30, (S)-5-amino-N-(4-(3-aminopiperidin-1-yl)pyridin-3-yl)-2-(4-tolylthiazole)-4-carboxamide]	52.2	0.076	> 5000	0.033	163	0.429
Cc1cccc(C)c1-c1nc(C(=O)Nc2cnccc2N2CCC[C@H](N)C2)c(N)s1 [Example 54, (S)-5-amino-N-(4-(3-aminopiperidin-1-yl)pyridin-3-yl)-2-(2,6-dimethylphenyl)thiazole-4-carboxamide]	7800	26.9	> 20000	23.1	15700	72.3
Nc1sc(-c2cn[nH]c2)nc1C(=O)Nc1cnccc1N1CCC[C@H](N)C1 [Example 56, (S)-5-amino-N-(4-(3-aminopiperidin-1-yl)pyridin-3-yl)-2-(1H-pyrazol-4-yl)thiazole-4-carboxamide]	1500	0.115	> 20000	0.08	953	0.666
C=C(C)c1nc(C(=O)Nc2cnccc2N2CCC[C@H](N)C2)c(N)s1 [Example 59, (S)-5-amino-N-(4-(3-aminopiperidin-1-yl)pyridin-3-yl)-2-(prop-1-en-2-yl)thiazole-4-carboxamide]	> 20000	18.2	> 20000	48	> 20000	355
Nc1sc(-c2ccc3cccnc3c2)nc1C(=O)Nc1cnccc1N1CCC[C@H](N)C1 [Example 44, (S)-5-amino-N-(4-(3-aminopiperidin-1-yl)pyridin-3-yl)-2-(quinolin-7-yl)thiazole-4-carboxamide]	38.1	0.032	1900	0.113	191	0.512
CN(C)C(=O)c1ccc(F)c(-c2nc(C(=O)Nc3cnccc3N3CCC[C@H](N)C3)cs2)c1 [Example 47, (S)-N-(4-(3-aminopiperidin-1-yl)pyridin-3-yl)-2-(5-(dimethylcarbamoyl)-2-fluorophenyl)thiazole-4-carboxamide]	3900	3.98	> 20000	2.11	> 20000	59.8
COc1ccc(-c2nc(C(=O)Nc3cnccc3N3CCC[C@H](N)C3)c(N)s2)c(F)c1 [Example 35, (S)-5-amino-N-(4-(3-aminopiperidin-1-yl)pyridin-3-yl)-2-(2-fluoro-4-methoxyphenyl)thiazole-4-carboxamide]	29.3	0.709	2000	1.13	2300	5.28
Nc1sc(-c2ncccc2F)nc1C(=O)Nc1cnccc1N1CCC[C@H](N)C1 [Example 66, (S)-5-amino-N-(4-(3-aminopiperidin-1-yl)pyridin-3-yl)-2-(3-fluoropyridin-2-yl)thiazole-4-carboxamide]	40.6	0.05	2100	0.022	2800	0.0894

Now from value to compound:

GI50 [1] [nM]	Ki [2] [nM]	GI50 [3] [nM]	Ki [4] [nM]	EC50 [5] [nM]	Ki [6] [nM]	Structure (SMILES)
30.4	0.036	2100	0.022	121	0.0939	Nc1sc(-c2ccc(F)cc2F)nc1C(=O)Nc1cnccc1N1CCC[C@H](N)C1 [Example 42, (S)-5-amino-N-(4-(3-aminopiperidin-1-yl)pyridin-3-yl)-2-(2,4-difluorophenyl)thiazole-4-carboxamide]
300	0.044	2800	0.05	1500	0.493	Nc1sc(-c2cc(Br)ccc2Cl)nc1C(=O)Nc1cnccc1N1CCC[C@H](N)C1 [Example 5, (S)-5-amino-N-(4-(3-aminopiperidin-1-yl)pyridin-3-yl)-2-(5-bromo-2-chlorophenyl)thiazole-4-carboxamide]
117	0.063	1400	0.032	595	0.379	Nc1sc(-c2cccc(Br)c2)nc1C(=O)Nc1cnccc1N1CCC[C@H](N)C1 [Example 6, (S)-5-amino-N-(4-(3-aminopiperidin-1-yl)pyridin-3-yl)-2-(3-bromophenyl)thiazole-4-carboxamide]
33.2	0.0224	1400	0.0156	108	0.0671	Nc1sc(-c2ccccc2F)nc1C(=O)Nc1cnccc1N1CCC[C@H](N)C1 [Example 1, (S)-5-amino-N-(4-(3-aminopiperidin-1-yl)pyridin-3-yl)-2-(2-fluorophenyl)thiazole-4-carboxamide]
67.2	0.0355	2000	0.0205	218	0.126	Nc1sc(-c2ccccc2Cl)nc1C(=O)Nc1cnccc1N1CCC[C@H](N)C1 [Example 2, (S)-5-amino-N-(4-(3-aminopiperidin-1-yl)pyridin-3-yl)-2-(2-chlorophenyl)thiazole-4-carboxamide]
55.8	0.023	> 2500	0.026	160	0.154	Nc1sc(-c2cc(Br)ccc2F)nc1C(=O)Nc1cnccc1N1CCC[C@H](N)C1 [Example 4, (S)-5-amino-N-(4-(3-aminopiperidin-1-yl)pyridin-3-yl)-2-(5-bromo-2-fluorophenyl)thiazole-4-carboxamide]
2300	0.172	4200	0.072	6800	1.06	Nc1sc(-c2ccc(Cl)cc2)nc1C(=O)Nc1cnccc1N1CCC[C@H](N)C1 [Example 12, (S)-5-amino-N-(4-(3-aminopiperidin-1-yl)pyridin-3-yl)-2-(4-chlorophenyl)thiazole-4-carboxamide]
69	0.049	3900	0.022	2000	0.208	Nc1sc(-c2cc(F)ccc2F)nc1C(=O)Nc1cnccc1N1CCC[C@H](N)C1 [Example 41, (S)-5-amino-N-(4-(3-aminopiperidin-1-yl)pyridin-3-yl)-2-(2,5-difluorophenyl)thiazole-4-carboxamide]

Source: patent US8435976B2, “4-substituted pyridin-3-yl-carboxamide compounds and methods of use” (F. Hoffmann-La Roche, priority 2009, dated 2013)
